Literature values in patent publication US7795220B2, “Conformationally constrained parathyroid hormones with alpha-helix stabilizers” (The General Hospital Corporation, priority 2003, dated 2010).

Target: T1, P1R (Homo sapiens, UniProt Q03431)
T1 sequence (Q03431 27-593): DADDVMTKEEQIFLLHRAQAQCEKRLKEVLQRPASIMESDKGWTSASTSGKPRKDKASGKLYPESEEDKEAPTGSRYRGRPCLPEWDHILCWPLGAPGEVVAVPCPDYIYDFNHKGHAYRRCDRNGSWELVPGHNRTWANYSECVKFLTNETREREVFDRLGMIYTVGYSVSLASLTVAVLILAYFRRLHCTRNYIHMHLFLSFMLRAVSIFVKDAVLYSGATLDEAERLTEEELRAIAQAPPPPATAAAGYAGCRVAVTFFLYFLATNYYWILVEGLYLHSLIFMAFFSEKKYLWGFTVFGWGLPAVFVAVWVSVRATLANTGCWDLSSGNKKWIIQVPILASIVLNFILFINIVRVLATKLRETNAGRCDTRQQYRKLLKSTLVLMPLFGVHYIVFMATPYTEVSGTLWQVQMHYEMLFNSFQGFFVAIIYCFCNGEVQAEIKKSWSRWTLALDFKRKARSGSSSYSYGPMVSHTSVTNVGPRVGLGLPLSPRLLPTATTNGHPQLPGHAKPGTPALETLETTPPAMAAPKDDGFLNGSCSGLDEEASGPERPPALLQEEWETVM
Settings: literature; read-out: cAMP-signaling potency (EC50); cited from earlier work

PTH(1-34)
EC50: ~2 nM
